Measured values: patent publication US8048454B2, “Methods and compositions related to regulation of cytokine production by glycogen synthase kinase 3 (GSK-3)” (priority 2004, dated 2011)
“Also recorded” adds a separate entry of the source.

Experiments:
C57BL/6 mice [1] = assay: In vivo cytokine production in LPS-challenged mice (plasma ELISA); design: species or system mouse; details: SB216763 2 h before 150 μg LPS i.p.
Protocol: SB216763-treated mice were given 1 ml of PBS containing 30 μM of SB216763. Sham-injected and LPS groups were given 1 ml of PBS containing vehicle (0.01% DMSO). After 2 h, mice pre-treated with SB216763 (denoted LPS+SB216763) or vehicle (denoted LPS group) were given 150 μg of LPS by i.p., injection. *** indicates statistically significant differences at P<0.001, as compared to LPS-treated group. Results represent the mean±SD of 10 mice/group.
(§1) C57BL/6 mice were bred and maintained within the pathogen-free animal facility at UAB. Experimental endotoxic shock was induced in age- and sex-matched C57BL/6 mice (18 to 23 g) by intraperitoneal injection of 150 μg of LPS in PBS containing 0.1% DMSO. Mice pre-treated with the GSK-3 inhibitor SB216763 received 1 ml of PBS containing 30 μM of SB216763 (DMSO was at 0.01%) by i.p. injection. LPS-control and sham-injected mice were pre-treated (i.p. injection) with 1 ml of PBS containing 0.1% DMSO. Mice given the GSK-3 inhibitor SB216763 after LPS challenge received 1 ml of PBS containing 30 μM of SB216763 (DMSO was at 0.01%) by i.p. injection. LPS-control and sham-injected mice were administered (i.p.) 1 ml of PBS containing 0.01% DMSO. At 4 h after injection, blood from all groups of mice was obtained by retro-orbital plexus bleeding.
Human or mouse IL-1β, IL-10, IL-12 p40, and IFN-γ levels in the plasma of mice or cell-culture supernatants were determined by using enzyme-linked immunosorbent assay (ELISA) kits from R&D systems or Ebioscience according to manufacturer's instructions.

human monocytes = assay: Cytokine production by E. coli LPS-stimulated monocytes (ELISA); format: cell-based
Protocol: FIG. 2 The ability of the PI3K pathway to differentially modulate the levels of pro- and anti-inflammatory cytokines is mediated by inhibition of GSK-3. Human monocytes were pre-incubated with medium only, 10 μM SB216763, 10 mM LiCl, 200 nM Azakenpaullone, BIO (50 nM), 1 μM Akt-i, or 20 μM LY294002 for 1 h and then stimulated with 1 μg/ml of E. coli LPS for 20 h. Cell-free supernatants were collected and assessed for (A, C) IL-10, (B, D) IL-12 p40, (E) TNF-α, or (F) IL-6 production by ELISA. * and *** indicates significant differences (P<0.05 and P<0.001, respectively) compared to E. coli LPS stimulated cultures. Results represent the mean±SD of 5 separate experiments.
(A) Monocytes were pre-treated for 96 h with medium, siRNA targeting GSK-3β, or control siRNA and assayed by Western blot for the levels of total GSK-3β and total p38. (B, C) Monocytes were pre-treated with medium only, siRNA control, or siRNA targeting GSK-3β for 96 h, stimulated with E. coli LPS for 20 h, and cell-free supernatants assayed by ELISA for the levels of (B) IL-10 and (C) IL-12 p40. * indicates significant differences (P<0.05) compared to LPS stimulated cultures. Results represent the mean±SD of 3 separate experiments.
(§2) Human monocytes were pre-treated with medium only or 10 μM of SB216763 and then stimulated for the indicated time points with 1 μg/ml of E. coli LPS. The ability of E. coli LPS in the presence or absence of SB216763 to mediate the degradation and re-synthesis of (A) IκB-α and the phosphorylation of (B) NF-κB p65 (ser 276 or ser 536) were assessed by Western blot. […] The interaction of CBP with (F) NF-κB p65 and (G) CREB after treatment of cells with SB216763 (10 μM) were assessed by immunoprecipitation of CBP and probed for (F) NF-κB or (G) CREB levels by immunoblot. (H) To determine the functional effect of GSK-3 regulating CREB activity in LPS-stimulated monocytes, cells were pre-treated for 96 h with medium only, siRNA targeting CREB, or control siRNA and assayed by Western blot for the levels of CREB and total p38. (I, J) Monocytes pre-treated with medium only, siRNA control, or siRNA targeting CREB for 96 h were stimulated with E. coli LPS for 20 h and cell-free supernatants assayed by ELISA for the levels of (I) IL-10 and (J) IL-12 p40. To ensure equal protein loading, immunoblots were striped and re-probed with total p38 (A, B, H) or total CBP (F, G). […]
Human or mouse IL-1β, IL-10, IL-12 p40, and IFN-γ levels in the plasma of mice or cell-culture supernatants were determined by using enzyme-linked immunosorbent assay (ELISA) kits from R&D systems or Ebioscience according to manufacturer's instructions. […]

human CD4+ T cells = assay: Cytokine production by anti-CD3 stimulated purified CD4+ T cells (ELISA); format: cell-based; details: plate-bound anti-CD3 10 μg/ml, 72 h
Protocol: Supernatants were analyzed for […] (IFN-γ) and Th2- (IL-10) type cytokines by ELISA. […] Thus, inhibition of GSK-3 at the T cell level also suppresses inflammatory cytokines while increasing anti-inflammatory cytokine production. Moreover, inhibition of GSK-3 can enhance Th2-type immune responses while suppressing Th1-type responses.

[2] = test system: NF-κB p50, NF-κB p65, CREB; assay: Nuclear NF-κB p50, NF-κB p65 and CREB binding activity (TransAM kit); format: cell-based, human; details: SB216763 pre-treatment 1 h; LPS; vs LPS alone
Protocol: Human monocytes were pre-treated with medium only or 10 μM of SB216763 and then stimulated for the indicated time points with 1 μg/ml of E. coli LPS. The ability of E. coli LPS in the presence or absence of SB216763 to mediate the degradation and re-synthesis of (A) IκB-α and the phosphorylation of (B) NF-κB p65 (ser 276 or ser 536) were assessed by Western blot. […] The interaction of CBP with (F) NF-κB p65 and (G) CREB after treatment of cells with SB216763 (10 μM) were assessed by immunoprecipitation of CBP and probed for (F) NF-κB or (G) CREB levels by immunoblot. (H) To determine the functional effect of GSK-3 regulating CREB activity in LPS-stimulated monocytes, cells were pre-treated for 96 h with medium only, siRNA targeting CREB, or control siRNA and assayed by Western blot for the levels of CREB and total p38. (I, J) Monocytes pre-treated with medium only, siRNA control, or siRNA targeting CREB for 96 h were stimulated with E. coli LPS for 20 h and cell-free supernatants assayed by ELISA for the levels of (I) IL-10 and (J) IL-12 p40. To ensure equal protein loading, immunoblots were striped and re-probed with total p38 (A, B, H) or total CBP (F, G). For nuclear extract analysis of (C) NF-κB p65, (D) NF-κB p50, and (E) CREB, optical density values were normalized by loading a standardized amount of protein, as indicated in the figure. * indicates statistical significance at P<0.05. For A, B, E, F, G, H, and I, results are representative of 3 separate experiments. For C and D, results represent the mean±SD of 3 separate experiments.
Human monocytes in 24-well polystyrene tissue culture plates were pretreated for 1 h with SB216763 or 0.01% DMSO and then incubated with medium alone or LPS for the indicated time points. Cells were collected, washed two times in PBS, and then assayed for activity using the TransAM kit specific for the given transcription factor (Active Motif, Carlsbad, Calif.). […]

C57BL/6 mice [3] = assay: Endotoxin shock model, survival after LD100 of LPS; format: in vivo, mouse
Protocol: Mice (sham-injected and LPS groups) were pre-treated with i.p. injection of 1 ml PBS containing 0.01% DMSO (vehicle control). SB216763-treated mice were administered 1 ml of PBS containing 30 μM of SB216763. After 2 h, mice pre-treated with SB216763 (denoted LPS+SB216763) or vehicle (denoted LPS group) were given 150 μg of LPS by i.p., injection. ** and *** indicate statistically significant differences at P<0.01 and P<0.001, respectively, as compared to LPS-treated group. Results represent the mean of 30 mice/group.
as §1
Male C57BL/6 mice (8 to 12 weeks of age; 18 to 23 g) were injected via the intraperitoneal route with an LD100 ([…]) of E. coli K235 LPS in 200 µl of PBS containing 0.1% DMSO. Mice were monitored over a 10 day period for survivability.

CBP = assay: Co-immunoprecipitation of CBP with NF-κB p65 and CREB; format: cell-based, human; details: SB216763 10 μM; LPS-stimulated monocytes
Protocol: as §2, with “p38.” for “p38. (I, J) Monocytes pre-treated with medium only, siRNA control, or siRNA targeting CREB for 96 h were stimulated with E. coli LPS for 20 h and cell-free supernatants assayed by ELISA for the levels of (I) IL-10 and (J) IL-12 p40. To ensure equal protein loading, immunoblots were striped and re-probed with total p38 (A, B, H) or total CBP (F, G).”
Moreover, it has been shown that GSK-3 can negatively regulate the activation and nuclear binding properties of CREB. Therefore, it was next determined how GSK-3 inhibition was regulating the ability of nuclear CREB (ser133) to bind its consensus sequence (FIG. 9E). […] Since the levels of CREB binding activity were augmented by GSK-3 inhibition, it was determined if GSK-3 inhibition was affecting the ability of CREB (ser133) and NF-κ p65 (ser276) to associate with CBP by co-immunoprecipitation (FIG. 9F, G).

NF-κB = assay: IκB-α degradation and NF-κB p65 phosphorylation, Western blot, LPS-stimulated monocytes; format: cell-based, human; details: 10 μM SB216763, 1 μg/ml E. coli LPS
Protocol: Human monocytes were pre-treated with medium only or 10 μM of SB216763 and then stimulated for the indicated time points with 1 μg/ml of E. coli LPS. The ability of E. coli LPS in the presence or absence of SB216763 to mediate the degradation and re-synthesis of (A) IκB-α and the phosphorylation of (B) NF-κB p65 (ser 276 or ser 536) were assessed by Western blot. […] The interaction of CBP with (F) NF-κB p65 and (G) CREB after treatment of cells with SB216763 (10 μM) were assessed by immunoprecipitation of CBP and probed for (F) NF-κB or (G) CREB levels by immunoblot. […]
To investigate the underlying cellular mechanism responsible for the ability of GSK-3 inhibition to suppress the production of pro-inflammatory cytokines while concurrently augmenting the production of the anti-inflammatory cytokine IL-10, the ability of how GSK-3 influenced the activation of downstream transcription factors involved in the inflammatory response was assessed. […] Since GSK-3 can mediate the phosphorylation of the p65 subunit of NF-κB, it was next determined if GSK-3 inhibition was exerting an effect on the phosphorylation status of the p65 subunit of NF-κB. […] Therefore, the nuclear levels of the NF-κB subunits p50 and p65 were analyzed in the presence or absence of the GSK-3 inhibitor SB216763 (FIG. 9C, D). […]

## Cn1cc(C2=C(c3ccc(Cl)cc3Cl)C(=O)NC2=O)c2ccccc21 [SB216763]
C57BL/6 mice [1]; IL-1β, IL-12 p40, IFN-γ, vs LPS-treated controls
  reduction of systemic levels of several pro-inflammatory cytokines: more than 50%
C57BL/6 mice [1]
  in vivo (systemic) levels of IL-1β, IL-12 and IFN-γ (in words): suppresses; also recorded: profound decrease
  in vivo levels of IL-10 (in words): enhanced
C57BL/6 mice [1]; vs LPS-treated controls
  increase of in vivo production of IL-10: more than 2 fold
Human monocytes; inhibitor pre-incubation 1 h, 1 μg/ml E. coli LPS 20 h
  IL-10 levels compared to E. coli LPS-treated monocytes (in words): approximate three-fold increase
Human monocytes; inhibitor pre-incubation 1 h, 1 μg/ml E. coli LPS 20 h, vs LPS alone
  reduction in IL-12 p40 levels: ~80%
Human monocytes; siRNA against CREB 96 h plus SB216763, LPS
  level of IL-12 p40 in cultures pre-treated with siRNA against CREB (in words): did not appear to be altered
Human monocytes; siRNA targeting CREB 96 h plus SB216763, LPS, vs LPS stimulated controls
  IL-10 levels in cells pretreated with siRNA targeting CREB (in words): did not exhibit any discernible increase
Human CD4+ T cells
  levels of IL-10: significantly enhanced
  production of IFN-γ: suppress
[2]
  DNA-binding properties of CREB: significant increase
  nuclear levels of NF-κB p50 able to bind its consensus sequence: did not appear to be influenced
  nuclear levels of NF-κB p65 able to bind its consensus sequence: did not appear to be influenced
C57BL/6 mice [3]; given 2 h before or 2 h after LD100 of LPS
  LPS (endotoxin) lethality (in words): mediates protection; also recorded: severe attenuation
C57BL/6 mice [3]; given 2 hours after LD100 of LPS, 1 ml PBS with 30 μM i.p., 0% in control-treated mice
  mice survived: approximately 55%
C57BL/6 mice [3]; given 2 hours before LD100 of LPS, 1 ml PBS with 30 μM i.p., 0% in control-treated mice
  mice protected from death: greater than 70%
C57BL/6 mice [3]; monitored over a 10-day period, both treatment groups
  late deaths among survivors: no late deaths
CBP
  levels of CREB bound to CBP: potently augmented
  levels of p65 associated with CBP: pronounced decrease
NF-κB
  rate or extent of degradation or re-synthesis of IκB-α protein: failed to alter
NF-κB; vs LPS alone
  level and duration of p65 phosphorylation (ser276 or ser536): Neither the level nor duration
